Entries after “also recorded” stand apart in the source; their conditions may differ. Like-named read-outs stand apart in the source and are kept apart here.
Tests used:
[1] = Pharmacokinetics of rapamycin in blood after a single oral dose; format: in vivo, dogs; details: experiment 1: 0.1 mg/kg PO once
[2] = Pharmacokinetics of rapamycin in blood after oral dosing once daily for 5 days; format: in vivo, dogs
healthy dogs = test: Monitoring of adverse effects in healthy dogs during the study; format: in vivo; details: 0.1 mg/kg PO once (experiment 1) and once daily for 5 days (experiment 2), vomiting between 3 and 5 hours after administration on day 4 of experiment 2
mTOR pathway = details: IM 0.01 to 0.08 mg/kg, peripheral blood mononuclear cells and tumor biopsy specimens, each dose cohort; cited from earlier work
[3] = tested on: canine osteosarcoma and malignant melanoma cell lines; details: immortalized canine cell lines; cited from earlier work
[4] = blood samples stored frozen at −80°C for 90 days and subsequently thawed; cited from earlier work
[5] = tested on: dogs with experimental renal allografts; details: cited from earlier work
dogs with osteosarcoma = details: cited from earlier work
[6] = compartmental NME analysis, 5 dogs
[7] = experiment 2, day 5 of 0.1 mg/kg PO once daily, compartmental NME analysis
[8] = experiment 2: 0.1 mg/kg PO once daily for 5 days, compartmental NME analysis, value before the change on day 5, mean for 4 dogs
[9] = experiment 2: 0.1 mg/kg PO once daily for 5 days, whole blood, mean of n = 4, SD

Structure (SMILES): CO[C@H]1C[C@@H]2CC[C@@H](C)[C@@](O)(O2)C(=O)C(=O)N2CCCC[C@H]2C(=O)O[C@H]([C@H](C)C[C@@H]2CC[C@@H](O)[C@H](OC)C2)CC(=O)[C@H](C)/C=C(\C)[C@@H](O)[C@@H](OC)C(=O)[C@H](C)C[C@H](C)/C=C/C=C/C=C/1C [rapamycin, Rapamycin]
- V1/f, volume of the central compartment after oral administration, mean estimate [1, 6]: 6.74 L/kg
- V2/f, volume of the peripheral compartment after oral administration, mean estimate [1, 6]: 18.1 L/kg
- ka, absorption rate constant, mean estimate [1, 6]: 0.358 h⁻¹
- Cmax (mean ± SD) ([1]; whole blood, mean of n = 5, SD): 8.39 ± 1.73 ng/mL
- Tmax (mean ± SD) ([1]; whole blood, mean of n = 5, SD): 3.3 ± 2.5 h
- concentration 48 hours after drug administration (mean ± SD) ([1]; whole blood, mean of n = 5, SD): 1.38 ± 0.45 ng/mL
- t1/2, terminal half-life (mean ± SD) ([1]; whole blood, noncompartmental, mean of n = 5, SD): 38.7 ± 12.7 h
- mean V1/f on the last day (day 5) of administration [2, 7]: 16.8 L/kg
- mean ka on the last day (day 5) of administration [2, 7]: 2.17 h⁻¹
- V2/f, volume of the peripheral compartment after oral administration, mean estimate ([2]; experiment 2: 0.1 mg/kg PO once daily for 5 days, compartmental NME analysis, mean for 4 dogs): 22.1 L/kg
- V1/f, volume of the central compartment after oral administration, mean estimate [2, 8]: 4.53 L/kg
- ka, absorption rate constant, mean estimate [2, 8]: 0.294 h⁻¹
- Tmax (mean ± SD) ([2]; experiment 2: 0.1 mg/kg PO once daily for 5 days, mean of n = 4, SD): 4.5 ± 1.0 h
- Cmax (mean ± SD) [2, 9]: 5.49 ± 1.99 ng/mL
- concentration 48 hours after drug administration (mean ± SD) [2, 9]: 1.70 ± 0.40 ng/mL
- Parameter characterizing the change in ka on the last day (day 5) of rapamycin administration in experiment 2 ([2]; βOCC2 of the NME model, θμD5 = θμD1−4e^βOCC2, P = 0.002): 2.0
- Parameter characterizing the change in V1/f on the last day (day 5) of rapamycin administration in experiment 2 ([2]; βOCC2 of the NME model, P = 0.002): 1.31
- adverse effects observed (healthy dogs): None of the dogs had a substantial change in energy level, appetite, water intake, urination, or defecation; also recorded: One dog vomited once; also recorded: No other adverse effects were observed
- modulation of the mTOR pathway (mTOR pathway): modulation of the mTOR pathway was detected
- viable tumor cells after exposure to rapamycin [3]: significant, dose-dependent decrease in viable tumor cells
- rapamycin concentration in stored blood samples (stability) [4]: not substantially affected
- prevention of renal allograft rejection ([5]; 0.05 mg/kg, IV): did not provide sufficient immunosuppression to prevent rejection of the renal allograft
- prevention of renal allograft rejection ([5]; 0.1 mg/kg, IM q 48 h or twice weekly, in combination with cyclosporine and antilymphocyte serum): not sufficient to prevent renal allograft rejection
- maximally tolerated dose (dogs with osteosarcoma; IM injection, doses ranging from 0.01 to 0.08 mg/kg): a maximally tolerated dose was not achieved
- injection site reaction (dogs with osteosarcoma; dog, in vivo): sterile abscesses at the injection site

Reference: article PMC5642271 (American journal of veterinary research, 2016)
